# Assay results from the supplement of paper PMC10307832.
# Tests used:
# Assay in all cases: relative viability (nuclei count vs DMSO), 5 days (fraction); higher = more cells survive
# Gemcitabine + Dasatinib = compound: Nc1ccn([C@@H]2O[C@H](CO)[C@@H](O)C2(F)F)c(=O)n1 [Gemcitabine] + Cc1nc(Nc2ncc(C(=O)Nc3c(C)cccc3Cl)s2)cc(N2CCN(CCO)CC2)n1 [Dasatinib] (partner 0.075 µM)
# Method in brief: (§1)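 Cells from lung cancer lines were seeded into 1536-well plates and, one day later, dosed by pin tool. Treatments were either a single drug or a fixed dose of an anchor drug with five library-drug doses (not always all listed) in √10 steps. After 5 days, nuclei were stained in a one-step fixation (final 0.05% Triton X-100, 1% formaldehyde, 1 ug/ml Hoechst) and counted on 4× images, and relative viability is the treated-to-vehicle nuclei ratio, as the median of duplicate plates.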
# Gemcitabine + Luminespib = compound: Nc1ccn([C@@H]2O[C@H](CO)[C@@H](O)C2(F)F)c(=O)n1 [Gemcitabine] + CCNC(=O)c1noc(-c2cc(C(C)C)c(O)cc2O)c1-c1ccc(CN2CCOCC2)cc1 [Luminespib] (partner 0.01 µM)
# Method in brief: as §1
# Gemcitabine + Alpelisib = compound: Nc1ccn([C@@H]2O[C@H](CO)[C@@H](O)C2(F)F)c(=O)n1 [Gemcitabine] + Cc1nc(NC(=O)N2CCC[C@H]2C(N)=O)sc1-c1ccnc(C(C)(C)C(F)(F)F)c1 [Alpelisib] (partner 2 µM)
# Method in brief: as §1
# Gemcitabine + Tozasertib = compound: Nc1ccn([C@@H]2O[C@H](CO)[C@@H](O)C2(F)F)c(=O)n1 [Gemcitabine] + Cc1cc(Nc2cc(N3CCN(C)CC3)nc(Sc3ccc(NC(=O)C4CC4)cc3)n2)n[nH]1 [Tozasertib] (partner 0.1 µM)
# Method in brief: as §1
Cell Line,relative viability (Gemcitabine + Dasatinib; first compound 0.001 µM),relative viability (Gemcitabine + Dasatinib; first compound 0.003162 µM),relative viability (Gemcitabine + Dasatinib; first compound 0.01 µM),relative viability (Gemcitabine + Dasatinib; first compound 0.03162 µM),relative viability (Gemcitabine + Dasatinib; first compound 0.1 µM),relative viability (Gemcitabine + Luminespib; first compound 0.001 µM),relative viability (Gemcitabine + Luminespib; first compound 0.003162 µM),relative viability (Gemcitabine + Luminespib; first compound 0.01 µM),relative viability (Gemcitabine + Luminespib; first compound 0.03162 µM),relative viability (Gemcitabine + Luminespib; first compound 0.1 µM),relative viability (Gemcitabine + Alpelisib; first compound 0.001 µM),relative viability (Gemcitabine + Alpelisib; first compound 0.01 µM),relative viability (Gemcitabine + Alpelisib; first compound 0.03162 µM),relative viability (Gemcitabine + Alpelisib; first compound 0.1 µM),relative viability (Gemcitabine + Tozasertib; first compound 0.001 µM),relative viability (Gemcitabine + Tozasertib; first compound 0.003162 µM),relative viability (Gemcitabine + Tozasertib; first compound 0.01 µM),relative viability (Gemcitabine + Tozasertib; first compound 0.03162 µM),relative viability (Gemcitabine + Tozasertib; first compound 0.1 µM),relative viability (Gemcitabine + Alpelisib; first compound 0.003162 µM)
LK-2,0.299,0.356,0.174,0.201,0.158,0.186,0.245,0.173,0.178,0.164,1.23,0.447,0.242,0.251,0.162,0.157,0.21,0.183,0.165,–
LOU-NH91,0.545,0.28,0.455,0.244,0.242,0.322,0.322,0.339,0.182,0.24,0.726,0.457,0.316,0.263,0.699,0.578,0.415,0.211,0.146,0.515
LU99A,0.555,0.56,0.558,0.516,0.507,0.238,0.306,0.233,0.232,0.266,0.506,0.515,0.505,0.481,0.26,0.322,0.294,0.327,0.265,0.576
LXF-289,0.227,0.22,0.0855,0.0424,0.0448,0.627,0.706,0.479,0.106,0.112,1.04,0.737,0.123,0.114,0.254,0.199,0.111,0.0735,0.0697,1
NCI-H23,0.865,0.36,0.126,0.135,0.1,0.214,0.212,0.192,0.175,0.217,0.57,0.108,0.129,0.115,0.688,0.225,0.114,0.129,0.114,0.242
NCI-H322M,0.295,0.241,0.28,0.274,0.252,0.73,0.445,0.334,0.36,0.344,0.562,0.245,0.294,0.271,0.459,0.407,0.288,0.316,0.283,0.292
NCI-H358,0.21,0.151,0.0931,0.0759,0.0931,0.778,0.294,0.126,0.121,0.114,0.64,0.154,0.175,0.151,0.086,0.081,0.0836,0.081,0.0743,0.236
NCI-H441,0.569,0.282,0.215,0.129,0.133,0.343,0.332,0.198,0.189,0.177,0.602,0.138,0.149,0.12,0.569,0.394,0.25,0.196,0.197,0.327
NCI-H460,0.495,0.524,0.46,0.0224,0.0058,0.0273,0.0507,0.0367,0.0148,0.014,0.684,0.0473,0.0144,0.0066,0.535,–,0.299,0.0246,0.0096,0.484
NCI-H520,0.212,0.258,0.161,0.151,0.154,0.22,0.231,0.224,0.201,0.252,0.933,0.461,0.195,0.142,0.422,0.446,0.316,0.208,0.239,0.897
NCI-H596,0.528,0.521,0.289,0.242,0.215,1.23,0.949,0.323,0.31,0.305,0.489,0.345,0.329,0.194,0.922,0.589,0.391,0.306,0.223,0.454
NCI-H647,0.1,0.0588,0.0298,0.0257,0.0223,0.166,0.118,0.0907,0.0871,0.0761,1.08,0.0715,0.0975,0.0551,0.395,0.098,0.0474,0.0387,0.0371,0.174
NCI-H650,0.428,0.329,0.228,0.149,0.157,0.753,0.522,0.185,0.16,0.155,0.816,0.179,0.177,0.159,0.676,0.384,0.193,0.143,0.15,0.486
NCI-H661,1.07,0.814,0.428,0.176,0.18,0.905,0.934,0.694,0.274,0.209,0.594,0.185,0.177,0.172,0.367,0.366,0.338,0.263,0.219,0.503
NCI-H727,0.303,0.33,0.295,0.264,0.345,0.312,0.288,0.352,0.207,0.342,0.412,0.199,0.221,0.212,0.571,0.443,0.352,0.431,0.321,0.311
NCI-H838,0.293,0.287,0.318,0.261,0.136,0.286,0.289,0.241,0.292,0.18,1.05,1.14,0.557,0.169,0.283,0.277,0.263,0.164,0.121,1.17
